# Values quoted from earlier work, collected in Sander's compilation of Henry's law constants.
# “And” between values parts separate entries of the source, which are not always exact repeats. Equal values may be shown once.
# Experiment: Henry solubility constant Hcp at 298.15 K (mol/(m3 Pa))
# Settings: cited value
# [1] = reference: Burkholder et al. (2015)
# [2] = reference: Burkholder et al. (2019)
# [3] = reference: Barcelo and Hennion (1997)
# [4] = reference: Howard and Meylan (1997)
# [5] = reference: Fogg and Sangster (2003)
# [6] = reference: Sander et al. (2011)
# [7] = reference: Sander et al. (2006)
# [8] = reference: Plyasunov et al. (2006)
# [9] = reference: Mackay et al. (1992b)
smiles,measurement,setting,value
OBr [hypobromous acid],Henry solubility constant Hcp,[1],> 13
same,Henry solubility constant Hcp,[2],> 13
CCCCCO [1-pentanol],Henry solubility constant Hcp,reference: Brockbank (2013),0.86
same,Henry solubility constant Hcp,reference: Dohnal et al. (2006),1
"Brc1ccc(Oc2cc(Br)c(Br)cc2Br)c(Br)c1 [2,2',4,4',5-pentabromodiphenyl ether]",Henry solubility constant Hcp,reference: Wania and Dugani (2003),1.9
CCC(C)(C)O [2-methyl-2-butanol],Henry solubility constant Hcp,reference: Brockbank (2013),0.65
C=CC=O [propenal],Henry solubility constant Hcp,reference: Brockbank (2013),0.072
same,Henry solubility constant Hcp,reference: Gaffney and Senum (1984),0.081
same,Henry solubility constant Hcp,reference: Goldstein (1982),0.1
same,Henry solubility constant Hcp,reference: Howard (1989),2.2
CNC(=O)ON=C(C)SC [methomyl],Henry solubility constant Hcp,[3],150
c1ccc2[nH]ccc2c1 [indole],Henry solubility constant Hcp,[4],15
CNC(=O)Oc1cc(C)c(SC)c(C)c1 [methiocarb],Henry solubility constant Hcp,reference: MacBean (2012b),8400
"ClCC(Cl)Cl [1,1,2-trichloroethane]",Henry solubility constant Hcp,reference: Barr and Newsham (1987),0.011
same,Henry solubility constant Hcp,reference: Brockbank (2013),0.011
same,Henry solubility constant Hcp,[1],0.011
same,Henry solubility constant Hcp,[2],0.011
same,Henry solubility constant Hcp,[5],0.012
same,Henry solubility constant Hcp,reference: Goldstein (1982),0.012
FN(F)F [nitrogen trifluoride],Henry solubility constant Hcp,[1],7.9e-06
same,Henry solubility constant Hcp,[2],7.9e-06
same,Henry solubility constant Hcp,[6],7.9e-06
C=CCCC [1-pentene],Henry solubility constant Hcp,reference: Brockbank (2013),3e-05
"Cc1cc(C)cc(O)c1 [1-hydroxy-3,5-dimethylbenzene]",Henry solubility constant Hcp,reference: Brockbank (2013),15
CCCCCOC(C)=O [pentyl ethanoate],Henry solubility constant Hcp,reference: Brockbank (2013),0.025
same,Henry solubility constant Hcp,reference: Meynier et al. (2003),0.025
CC(C)I [2-iodopropane],Henry solubility constant Hcp,reference: Brockbank (2013),0.00085
COP(=S)(OC)Oc1ccc([N+](=O)[O-])cc1 [methylparathion],Henry solubility constant Hcp,[3],0.47
COc1ccccc1 [methoxybenzene],Henry solubility constant Hcp,reference: Brockbank (2013),0.029
same,Henry solubility constant Hcp,reference: Hine and Weimar (1965),0.0023
COC(=O)c1ccccc1C(=O)OC [dimethyl phthalate],Henry solubility constant Hcp,reference: Brockbank (2013),51
same,Henry solubility constant Hcp,reference: Goldstein (1982),29 and 30
same,Henry solubility constant Hcp,reference: McCarty (1980),23
CN=C=S [methyl isothiocyanate],Henry solubility constant Hcp,[1],0.17
same,Henry solubility constant Hcp,[2],0.17
same,Henry solubility constant Hcp,[6],0.17
S=C=S [carbon disulfide],Henry solubility constant Hcp,[1],0.00061
same,Henry solubility constant Hcp,[2],0.00061
same,Henry solubility constant Hcp,reference: Goldstein (1982),0.00075
same,Henry solubility constant Hcp,[7],0.00061
same,Henry solubility constant Hcp,[6],0.00061
"CC(=O)OC(C)(C)C [1,1-dimethylethyl ethanoate]",Henry solubility constant Hcp,reference: Brockbank (2013),0.012
CCC(C)Cl (centres undefined) [2-chlorobutane],Henry solubility constant Hcp,reference: Brockbank (2013),0.00041
CN1CSC(=S)N(C)C1 [dazomet],Henry solubility constant Hcp,reference: MacBean (2012b),37000
CCOC(C)(C)C [ethyl tert-butyl ether],Henry solubility constant Hcp,reference: Brockbank (2013),0.0072
CCC1CCCCC1 [ethylcyclohexane],Henry solubility constant Hcp,reference: Brockbank (2013),2.1e-05
Cc1cccc([N+](=O)[O-])c1 [3-nitrotoluene],Henry solubility constant Hcp,reference: Brockbank (2013),0.27
same,Henry solubility constant Hcp,reference: Goldstein (1982),0.14
OCl [hypochlorous acid],Henry solubility constant Hcp,[1],6.5
same,Henry solubility constant Hcp,[2],6.5
same,Henry solubility constant Hcp,reference: Huthwelker et al. (1995),6.5
same,Henry solubility constant Hcp,[7],6.5
same,Henry solubility constant Hcp,[6],6.5
c1cc2c3c(cccc3c1)CC2 [acenaphthene],Henry solubility constant Hcp,reference: Brockbank (2013),0.072
same,Henry solubility constant Hcp,[5],0.055
same,Henry solubility constant Hcp,reference: Goldstein (1982),0.041
same,Henry solubility constant Hcp,reference: HSDB (2015),0.064
same,Henry solubility constant Hcp,reference: McCarty (1980),0.052
"FC(F)(F)C(Cl)Br (centres undefined) [1-bromo-1-chloro-2,2,2-trifluoroethane]",Henry solubility constant Hcp,[5],0.00056
COP(=S)(OC)Oc1ccc([N+](=O)[O-])c(C)c1 [fenitrothion],Henry solubility constant Hcp,[3],2.7
CCCCCCCC(C)=O [2-nonanone],Henry solubility constant Hcp,reference: Brockbank (2013),0.032
C=CC(=O)OCC [ethyl propenoate],Henry solubility constant Hcp,reference: Brockbank (2013),0.039
N#CCCCCC#N [hexanedinitrile],Henry solubility constant Hcp,[8],1500
CCCCCCCO [1-heptanol],Henry solubility constant Hcp,reference: Brockbank (2013),0.53
C(=C\c1ccccc1)/c1ccccc1 [(E)-stilbene],Henry solubility constant Hcp,[9],0.025
CCCCCCCCSC(=O)Oc1cc(Cl)nnc1-c1ccccc1 [pyridate],Henry solubility constant Hcp,[3],300
O=C(O)C(Br)(Br)Br [tribromoethanoic acid],Henry solubility constant Hcp,[1],3000
same,Henry solubility constant Hcp,[2],3000
same,Henry solubility constant Hcp,[6],3000
[CH3][Hg][CH3] [dimethylmercury],Henry solubility constant Hcp,reference: Abraham et al. (2008),0.0021
same,Henry solubility constant Hcp,reference: WHO (1990),0.0013
"Cc1cccc(O)c1C [1-hydroxy-2,3-dimethylbenzene]",Henry solubility constant Hcp,reference: Brockbank (2013),6.7
Cc1cccs1 [2-methylthiophene],Henry solubility constant Hcp,reference: Brockbank (2013),0.0041
FC(F)F [trifluoromethane],Henry solubility constant Hcp,[1],0.00013
same,Henry solubility constant Hcp,[2],0.00013
same,Henry solubility constant Hcp,[6],0.00013
CCCCCN [1-pentanamine],Henry solubility constant Hcp,reference: Brockbank (2013),0.43
CS(=O)(=O)c1cc(C(F)(F)F)ccc1C(=O)c1cnoc1C1CC1 [isoxaflutole],Henry solubility constant Hcp,reference: MacBean (2012b),53000
CCCCC [pentane],Henry solubility constant Hcp,reference: Brockbank (2013),7.2e-06
CCCOCC [ethyl propyl ether],Henry solubility constant Hcp,[4],0.0077
CCCNCCC [dipropylamine],Henry solubility constant Hcp,reference: Brockbank (2013),0.21
same,Henry solubility constant Hcp,[1],0.2
same,Henry solubility constant Hcp,[2],0.2
"OCC(O)CO [1,2,3-propanetriol]",Henry solubility constant Hcp,[1],4.7e+06
same,Henry solubility constant Hcp,[2],4.7e+06
COP(=O)(NC(C)=O)SC (centres undefined) [acephate],Henry solubility constant Hcp,[3],190000
Cc1ccc2ccccc2c1 [2-methylnaphthalene],Henry solubility constant Hcp,reference: Brockbank (2013),0.02
same,Henry solubility constant Hcp,[5],0.018
same,Henry solubility constant Hcp,[9],0.02
CCCC(C)=O [2-pentanone],Henry solubility constant Hcp,reference: Brockbank (2013),0.13
same,Henry solubility constant Hcp,reference: Mackay et al. (1995),0.17
"CCOC(=O)C(F)(F)F [trifluoroethanoic acid, ethyl ester]",Henry solubility constant Hcp,[1],0.00089
same,Henry solubility constant Hcp,[2],0.00089
same,Henry solubility constant Hcp,[6],0.00089
CC(C)C#N [2-methylpropanenitrile],Henry solubility constant Hcp,reference: Brockbank (2013),0.11
same,Henry solubility constant Hcp,[8],0.1
CC(C)(C)c1cc([N+](=O)[O-])cc([N+](=O)[O-])c1O [dinoterb],Henry solubility constant Hcp,[3],1.7
CCCCCC [hexane],Henry solubility constant Hcp,reference: Brockbank (2013),5.7e-06
"Clc1ccc(-c2ccc(Cl)cc2)cc1 [4,4'-dichlorobiphenyl]",Henry solubility constant Hcp,reference: Murphy et al. (1983b),0.033
FN(F)N(F)F [dinitrogen tetrafluoride],Henry solubility constant Hcp,[1],8.4e-06
same,Henry solubility constant Hcp,[2],8.4e-06
same,Henry solubility constant Hcp,[6],8.4e-06
ClC1=C(Cl)[C@]2(Cl)[C@@H]3[C@@H]4C[C@@H]([C@H]5O[C@@H]45)[C@@H]3[C@@]1(Cl)C2(Cl)Cl [dieldrin],Henry solubility constant Hcp,[3],0.0088
O=NO [nitrous acid],Henry solubility constant Hcp,reference: Schwartz and White (1981),0.48
"COCCOC [1,2-dimethoxyethane]",Henry solubility constant Hcp,reference: Brockbank (2013),1.3
[O][Cl+][O-] [chlorine dioxide],Henry solubility constant Hcp,[1],0.01
same,Henry solubility constant Hcp,[2],0.01
same,Henry solubility constant Hcp,[7],0.01
same,Henry solubility constant Hcp,[6],0.01
same,Henry solubility constant Hcp,reference: Young (1983),0.01
"OCC(F)(F)F [2,2,2-trifluoroethanol]",Henry solubility constant Hcp,[1],0.47
same,Henry solubility constant Hcp,[2],0.47
same,Henry solubility constant Hcp,[6],0.47
"OCC(Cl)Cl [2,2-dichloroethanol]",Henry solubility constant Hcp,[1],0.37
same,Henry solubility constant Hcp,[2],0.37
"Clc1ccc(C(c2ccc(Cl)cc2)C(Cl)(Cl)Cl)cc1 [1,1,1-trichloro-2,2-bis-(4-chlorophenyl)-ethane]",Henry solubility constant Hcp,[3],0.0042
CC(C)OC(=O)N[C@@H](C(=O)N[C@H](C)c1nc2ccc(F)cc2s1)C(C)C [benthiavalicarb isopropyl],Henry solubility constant Hcp,reference: MacBean (2012b),110
O=C(F)Cl [carbonic chloride fluoride],Henry solubility constant Hcp,reference: George et al. (1993),0.099
CCCC(=O)CCC [4-heptanone],Henry solubility constant Hcp,reference: Brockbank (2013),0.051
